Read-outs that look alike come from different tables or passages of the source.
Tests used:
hela cells = test: Test for inhibition of EGF-stimulated proliferation of tumor cells (hela, MTT); type: cell-based; conditions: 65 h; for inhibition at 5 µg/mL / inhibition at 1 µg/mL / inhibition at 25 µg/mL / inhibition at 0.2 µg/mL: Homo sapiens; for inhibition at 5 µg/mL: read-out: EGF stimulation % inhibition at 5 μg/ml; for inhibition at 1 µg/mL: read-out: EGF stimulation % inhibition at 1 μg/ml; for inhibition at 25 µg/mL: read-out: EGF stimulation % inhibition at 25 μg/ml; for inhibition at 0.2 µg/mL: read-out: EGF stimulation % inhibition at 0.2 μg/ml
Description: Test for inhibition of EGF- or bFGF-stimulated proliferation of tumor cells
2×10^3 hela cells per well were inoculated into a 96-well microtiter plate (in RPMI+1% FCS ). After 24 h, the medium was changed to RPMI+0.5% FCS and various concentrations of the test substance±EGF (0.1 nM)/bFGF (1 ng/ml) were added. Each group consisted of 4 wells; the control was only incubated±growth factor. After 65 h, 50 μof MTT (2.5 mg/ml in PBS) were added and the supernatant was removed after 7 h. The colored substance formed by the living cells was dissolved by addition of 100 μl of DMSO/well. The absorption was measured at 492 nm for each well with the aid of a 340 CC Multiscan photometer (Flow).
The mean value is formed from the 4 wells of a group and the absorption difference between the controls± growth factor (A) and between the groups with test substance± growth factor (B) is determined.

[1] = target: T1, EGF receptor tyrosine kinase (EGFRTK) (Homo sapiens, UniProt P00533); test: biochemical
T1 construct: This cell line expresses a large number of EGF receptors which have tyrosine kinase activity on the cell surface; endogenous in cells; host or cells: A 431 (ATCC CRL 1555), membrane preparation
T1 sequence (P00533 25-1210): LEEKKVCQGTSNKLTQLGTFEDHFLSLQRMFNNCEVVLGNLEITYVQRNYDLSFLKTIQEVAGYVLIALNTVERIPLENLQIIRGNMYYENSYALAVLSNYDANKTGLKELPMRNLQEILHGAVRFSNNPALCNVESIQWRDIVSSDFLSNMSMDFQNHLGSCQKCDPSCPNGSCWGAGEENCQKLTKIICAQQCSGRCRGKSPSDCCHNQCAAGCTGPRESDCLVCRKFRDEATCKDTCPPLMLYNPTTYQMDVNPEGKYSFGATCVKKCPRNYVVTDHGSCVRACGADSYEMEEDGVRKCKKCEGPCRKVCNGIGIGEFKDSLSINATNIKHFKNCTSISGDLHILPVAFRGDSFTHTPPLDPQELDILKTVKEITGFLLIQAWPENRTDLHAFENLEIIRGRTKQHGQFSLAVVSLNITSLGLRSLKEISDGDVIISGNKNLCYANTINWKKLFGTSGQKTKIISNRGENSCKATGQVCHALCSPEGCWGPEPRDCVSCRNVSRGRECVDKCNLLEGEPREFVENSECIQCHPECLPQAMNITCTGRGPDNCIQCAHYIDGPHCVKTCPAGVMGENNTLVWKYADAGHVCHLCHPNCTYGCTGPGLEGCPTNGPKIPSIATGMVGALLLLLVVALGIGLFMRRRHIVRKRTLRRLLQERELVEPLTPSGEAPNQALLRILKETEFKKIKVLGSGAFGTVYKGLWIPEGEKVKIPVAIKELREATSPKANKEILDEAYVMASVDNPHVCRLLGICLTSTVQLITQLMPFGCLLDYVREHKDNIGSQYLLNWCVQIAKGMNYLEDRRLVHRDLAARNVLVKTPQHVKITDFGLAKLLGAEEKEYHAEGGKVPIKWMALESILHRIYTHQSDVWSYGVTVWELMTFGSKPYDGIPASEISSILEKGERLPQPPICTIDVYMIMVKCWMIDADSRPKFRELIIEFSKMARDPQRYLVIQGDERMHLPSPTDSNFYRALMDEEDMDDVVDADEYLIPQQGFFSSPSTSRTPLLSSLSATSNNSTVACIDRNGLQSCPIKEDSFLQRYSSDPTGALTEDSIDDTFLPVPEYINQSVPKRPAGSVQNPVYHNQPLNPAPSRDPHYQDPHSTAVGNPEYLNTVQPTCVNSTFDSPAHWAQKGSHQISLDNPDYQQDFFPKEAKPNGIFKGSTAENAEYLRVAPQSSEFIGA
Description: Test for EGF receptor tyrosine kinase inhibition
This cell line expresses a large number of EGF receptors which have tyrosine kinase activity on the cell surface. The cells were cultured almost to confluence, washed with PBS (phosphate buffered saline, pH 7.2), scraped off the culture flask and incubated at 4° C. for 1 h, subjected to 20 strokes in a Potter and centrifuged at 1000 g for 30'. The supernatant was centrifuged at 20000 g for a further 20 min and the pellet was taken up in 100 μl per 1×10^6 cells as the membrane preparation.
The tyrosine kinase activity of the EGF receptor (EGFRTK) was measured using poly(Glu, Ala, Tyr), 6:3:1, as the substrate. […] After 15'at 30° C., the substrate was precipitated with 10% TCA (trichloroacetic acid), filtered on a millititer filtration plate (Millipore Corporation, Massachusetts, USA), washed and dried. The incorporation of ^32 P was determined by means of a liquid scintillation counter.

[2] = tested on: cAMP-dependent protein kinase (PKA); test: Test for 3',5'-cAMP-dependent protein kinase inhibition (PKA catalytic subunit, Kemptide substrate); type: biochemical; conditions: 40 μM ATP, 15' at 30° C.
Description: Test for 3',5'-cAMP-dependent protein kinase inhibition
The catalytic subunit of the cAMP-dependent protein kinase (PKA) (Sigma) was reconstituted as described by Sigma (Sigma Chemical Co., St. Louis, Mo. USA). The enzyme activity was measured using Kemptide (Sigma) (Leu-Arg-Arg-Ala-Ser-Leu-Gly) as a substrate. […] The reaction was initiated by addition of gamma-^32 P ATP (40 μM) After 15'at 30° C., an aliquot part was added to p81 ion exchanger (2×2 cm; Whatman Paper Ltd., Great Britain), immersed in 75 mM H3 PO4, washed, dried, and the incorporation of ^32 P was determined by means of a liquid scintillation counter.

[3] = 25 μg/ml, hela cells, EGF 0.1 nM, tox = toxic
[4] = 5 μg/ml, hela cells, EGF 0.1 nM, tox = toxic
[5] = 1 μg/ml, hela cells, EGF 0.1 nM, tox = toxic
[6] = A 431 membranes, 1000 nM EGF, 32 μM ATP, 15' at 30° C., max. 51 μg/ml, read-out: EGFRTK IC50 (converted)

Row | Structure (SMILES) | EGF stimulation % inhibition at 25 μg/ml (hela cells; [3]) | inhibition at 5 µg/mL (hela cells; [4]) [%] | PKA % inhib. at 40 μg/ml [2] [%] | IC50 [1, 6] [µM] | other results
1 | Oc1ccc(O)c(Cl)c1 [2-Chlorohydroquinone] | tox | 46 | 0 | – | IC50 [1]: 13.1 µM
2 | O=Cc1cc(O)ccc1O [Gentisaldehyde] | – | 16 | – | 145 to 217 | inhibition at 1 µg/mL (hela cells; [5]): 0%
3 | Cc1c(O)ccc(O)c1C [2,3-Dimethylhydroquinone] | tox | 17 | 71 | 4.64 | –
4 | CN1CCN(N=Cc2cc(O)ccc2O)CC1 [Ex. 12, 2,5-Dihydroxy-N-(4'-methylpiperazino)benzaldimine] | tox | 21 | 0 | 2.38 | –
5 | Oc1ccc(O)c(C=NN2CCCCC2)c1 [Ex. 10, 2,5-Dihydroxy-N-piperidinobenzaldimine] | – | – | 0 | 47.7 | –
6 | Oc1ccc(O)c(C=NC2CCCCC2)c1 [N-Cyclohexyl-2,5-dihydroxybenzaldimine] | – | 39 | 61 | 44.7 | inhibition at 25 µg/mL (hela cells; [3]): 64%
7 | Oc1ccc(N=Cc2cc(O)ccc2O)cc1 [2,5-Dihydroxy-N-(4'-hydroxyphenyl)benzaldimine] | tox | 39 | – | 55.1 | –
8 | O=C1C=CC(=O)c2cc3ccccc3cc21 [1,4-Anthraquinone] | – | – | – | 2.79 | EGF stimulation % inhibition at 5 μg/ml (hela cells; [4]): tox; inhibition at 1 µg/mL (hela cells; [5]): 33%
9 | Oc1ccccc1O [Pyrocatechol] | – | – | 0 | – | inhibition at 0.2 µg/mL (hela cells; HeLa): 16%; inhibition at 1 µg/mL (hela cells; HeLa): 35%; IC50 [1]: 14.5 µM
10 | CN(C)N=Cc1cc(O)ccc1O [Ex. 4, 2,5-Dihydroxy-N,N-dimethylbenzaldehyde hydrazone] | tox | 46 | 63 | 7.66 | –
11 | CC(C)N=Cc1cc(O)ccc1O [Ex. 8, 2,5-Dihydroxy-N-isopropylbenzaldimine] | tox | 28 | 0 | 46.3 | –
12 | O=C(O)c1ccc(NCc2cc(O)ccc2O)cc1 [4-[N-(2',5'-Dihydroxybenzyl)amino]benzoic acid] | tox | 36 | 61 | 17.8 | –
13 | O=C1C=CC(=O)C=C1 [Benzoquinone] | – | 55 | 45 | – | inhibition at 1 µg/mL (hela cells; [5]): 36%; IC50 [1]: 0.463 µM
14 | O=C(O)c1cccc(N=Cc2cc(O)ccc2O)c1 [3-[-(2',5'-Dihydroxybenzylidene)amino]benzoic acid] | tox | 44 | 0 | 77.9 | –
15 | CN=Cc1cc(O)ccc1O [Ex. 2, 2,5-Dihydroxy-N-methylbenzaldimine] | tox | 21 | 0 | 13.1 | –
16 | O=C1C=CC(=O)C(Cl)=C1 [2-Chlorobenzoquinone] | tox | – | 29 | – | inhibition at 5 µg/mL (hela cells; HeLa): 29%; IC50 [1]: 9.68 µM
17 | Oc1ccc(O)c(C=NN2CCOCC2)c1 [Ex. 11, 2,5-Dihydroxy-N-morpholinobenzaldimine] | tox | 17 | 0 | 12.5 | –
18 | CCCCCCN=Cc1cc(O)ccc1O [Ex. 6, N-Hexyl-2,5-dihydroxybenzaldimine] | tox | 18 | 0 | 95.6 | –

Row | Structure (SMILES) | EGF stimulation % inhibition at 25 μg/ml (hela cells; [3]) | inhibition at 5 µg/mL (hela cells; [4]) [%] | PKA % inhib. at 40 μg/ml [2] [%] | IC50 [1, 6] [µM] | other results
19 | O=C(O)c1cc(N=Cc2cc(O)ccc2O)ccc1O [5-[N-(2',5'-Dihydroxybenzylidene)amino]-2-hydroxybenzoic acid] | tox | 51 | 0 | 27.3 | –
20 | COC(=O)[C@H](Cc1c[nH]cn1)N=Cc1cc(O)ccc1O [Ex. 5, (S)-α-N-(2,5-Dihydroxybenzylidene)histidine methyl ester] | – | – | 0 | – | inhibition at 5 µg/mL (hela cells; HeLa): 10%; inhibition at 25 µg/mL (hela cells; HeLa): 44%; IC50 [1]: 43.7 µM
21 | CCN=Cc1cc(O)ccc1O [Ex. 7, N-Ethyl-2,5-hydroxybenzaldimine] | tox | 28 | 0 | 74.2 | –
22 | Oc1ccc(O)c(C=NCc2ccccc2)c1 [Ex. 3, N-Benzyl-2,5-dihydroxybenzaldimine] | tox | 28 | 0 | 7.48 | –
23 | O=S(=O)([O-])c1cc(O)ccc1O.[K+] | – | – | 1 | 8.06 | inhibition at 5 µg/mL (hela cells; HeLa): 6%; inhibition at 25 µg/mL (hela cells; HeLa): 14%
24 | CC(C)(C)c1cc(O)ccc1O [2-tert-Butylhydroquinone] | – | – | 22 | 5.72 | inhibition at 1 µg/mL (hela cells; HeLa): 21%; inhibition at 5 µg/mL (hela cells; HeLa): 52%
25 | O=C(O)c1ccc(N=Cc2cc(O)ccc2O)cc1 [Ex. 1, 4-[N-(2',5'-Dihydroxybenzylidene)amino]benzoic acid] | tox | 48 | 0 | 67.5 | –
26 | Oc1ccc(O)c(C=Nc2ccccc2)c1 [2,5-Dihydroxy-N-phenylbenzaldimine] | tox | 24 | – | 89.3 | –
27 | Oc1ccc(O)cc1 [Hydroquinone] | – | – | – | 0.908 | inhibition at 1 µg/mL (hela cells; HeLa): 29%; inhibition at 5 µg/mL (hela cells; HeLa): 43%
28 | O=C1C=CC(=O)c2ccccc21 [Naphthoquinone] | – | – | – | – | inhibition at 0.2 µg/mL (hela cells; 0.2 μg/ml, hela cells, EGF 0.1 nM): 11%; IC50 [1]: 1.26 µM
29 | Oc1ccc(O)c2ccccc12 [1,4-Naphthodiol] | – | – | 76 | – | EGF stimulation % inhibition at 1 μg/ml (hela cells; [5]): tox; inhibition at 0.2 µg/mL (hela cells; HeLa): 29%; IC50 [1]: 9.36 µM
30 | Oc1ccc(O)c(-c2ccccc2)c1 [2-Phenylhydroquinone] | – | 66 | 25 | 5.53 | inhibition at 1 µg/mL (hela cells; [5]): 11%
31 | Oc1ccc(O)c(C=NN2CCCCCC2)c1 [N-Homopiperidino-2,5-dihydroxybenzaldimine] | – | – | 0 | 17.4 | EGF stimulation % inhibition at 5 μg/ml (hela cells; [4]): tox
32 | Cc1cc(O)ccc1O [2-Methylhydroquinone] | – | 66 | 46 | 8.86 | inhibition at 1 µg/mL (hela cells; [5]): 21%
33 | O=C1C=CC(=O)C=C1.Oc1ccc(O)cc1 [Quinhydrone] | – | – | 0 | – | EGF stimulation % inhibition at 1 μg/ml (hela cells; [5]): 12%; EGF stimulation % inhibition at 5 μg/ml (hela cells; [4]): 64%; EGFRTK IC50 ([1]; A 431 membranes, 1000 nM EGF, 32 μM ATP, 15' at 30° C., max. 51 μg/ml): 0.126 µg/mL
34 | Cc1cc(O)c2ccccc2c1O [Menadiol] | – | – | 0 | 150 | –
35 | Oc1ccc(O)c(O)c1 [1,2,4-Trihydroxybenzene] | – | – | 0 | 190 | EGF stimulation % inhibition at 5 μg/ml (hela cells; [4]): tox; inhibition at 1 µg/mL (hela cells; HeLa): 5%

Source: US5519018A, “Substituted phenols and their use for the treatment of disorders caused by cell proliferation” (Behringwerke Aktiengesellschaft, priority 1992, dated 1996)
